# In patent US11198699B2 (ALIGOS THERAPEUTICS, INC., priority 2019, dated 2021):
# How the values were obtained:
# PRMT5/MEP50 [1] = molecular target: T1, PRMT5/MEP50 (Homo sapiens (Human), UniProt O14744); experiment: PRMT5/MEP50 enzyme inhibition assay, Assay 2 (384-well, MALDI mass spectrometry, histone H4 1-21 peptide); assay type: biochemical; settings: 1 μM SAM, 0.1 μM histone H4 1-21 peptide, 18-hour incubation at rt
# Experimental: Compounds were tested for inhibition of methyltransferase activity in 384-well plate assay format using mass spectrometry technology. In this enzyme inhibition assay, compounds were tested in a 11-dose IC50 mode with 3-serial dilution, in duplicate, starting at 1, 10, or 100 μM. Reactions were carried out at 1 μM SAM and 0.1 μM histone H4 1-21 peptide as substrates for methyl transfer. Following an 18-hour incubation at rt, the reaction was stopped with 0.5% formic acid. Products of the reaction were captured while unreacted substrates were washed away, prior to MALDI mass spectrometry detection and analysis. Percent enzyme activity was calculated based on no inhibitor DMSO control as 100% activity. EC50 values were determined in GraphPad Prism 8 using the [inhibitor] vs. response—Variable slope (four parameters) function.
# (§1) Compounds of Formula (I) show activity in this assay. A value of ‘A’ in the table below indicates an IC50 of <1 nM, a value of ‘B’ indicates an IC50≥1 nM to ≤100 nM, and a value of ‘C’ indicates an IC50 value of >100 nM.
# PRMT5/MEP50 [2] = molecular target: T1, PRMT5/MEP50; experiment: PRMT5/MEP50 enzyme inhibition assay, Assay 1 (radioisotope filter binding, 3H-SAM, histone H2A); assay type: biochemical; settings: 1 μM 3H-SAM, 5 μM histone H2A, 60 min at 30° C.
# Experimental: Compounds were tested for inhibition of methyltransferase activity in a radioisotope filter binding assay, similar to previously described in A selective inhibitor of PRMT5 with in vivo and in vitro potency in MCL models. Chan-Penebre et al., Nat Chem Biol. (2015) 11(6):432-7. In the standard PRMT5/MEP50 enzyme inhibition assay, compounds were tested in a 10-dose IC50 mode with 3- or 5-fold serial dilution, in singlet, starting at 1, 10, or 100 μM. Control compound, SAH (S-(5′-Adenosyl)-L-homocysteine), was tested in 10-dose IC50 mode with 3-fold serial dilution starting at 100 μM. Reactions were carried out at 1 μM 3H-SAM (PerkinElmer) and 5 μM histone H2A as substrates for methyl transfer. Following a 60 min incubation at 30° C., the reaction was stopped with 20% TCA. Each reaction was spotted on a filter plate (Multiscreen FB Filter plate, Millipore) and washed 5 times in PBS, after which scintillation fluid was added and signal was detected in a scintillation counter. Percent enzyme activity was calculated based on no inhibitor DMSO control as 100% activity. EC50 values were determined in GraphPad Prism 8 using the [inhibitor] vs. response—Variable slope (four parameters) function.
# as §1
# [3] = test system: A549 lung carcinoma cells; experiment: Cell proliferation assay, A549 (CellTiter-Glo, 7 days); assay type: cell-based; settings: A549, 7 days, CellTiter-Glo 2.0
# Experimental: (§2) HepG2 hepatoma cells (ATCC, HB-8065) were maintained in DMEM with high glucose (Lonza, 12-914F) supplemented with 10% fetal bovine serum (FBS; Biowest, S181B-500) and 2 mM L-glutamine (Biowest, X0551-100) at 37° C. and 5% CO2. A549 lung carcinoma cells (ATCC, CCL-185) were maintained in F-12K medium (ThermoFisher 21127030) supplemented with 10% FBS at 37° C. and 5% CO2. Exponentially growing HepG2 or A549 were plated in white, clear-bottom 96-well plates (Corning, 3903) at a cell density of 2000 (HepG2) or 350 (A549) cells per well in 199 μL of HepG2 medium. Next, 1 μL of a 5-fold 9-point dilution series of test compound in DMSO was added to the different wells. Cells were incubated at 37° C. 5% CO2 for 7 days. Cell viability was assessed on day 7 with the CellTiter-Glo 2.0 Cell Viability assay kit (Promega, G9243) to quantify the intracellular amounts of ATP: first, 100 μL of cell culture medium was removed from each well, next 100 μL of CellTiter-Glo® 2.0 Reagent was added and plates were shaken for 2 minutes on an orbital shaker. After 10 minutes stabilization at room temperature, read-out was performed on a ThermoFisher VarioSkan Lux plate reader. Counts were normalized to DMSO control (0% inhibition) and the cytotoxic control (100% inhibition) and EC50 values were determined in GraphPad Prism 8 using the [Agonist] vs. response—Variable slope (four parameters) function.
# (§3) As shown by the data of Table 2, compounds of Formula (I) have activity in this assay. A value of ‘A’ in the table below indicates an EC50 of <20 nM, a value of ‘B’ indicates an EC50≥20 nM to <100 nM, a value of ‘C’ indicates an EC50 value of EC50≥100 nM to <1000 nM and a value of ‘D’ indicates an EC50≥1000 nM
# HepG2 hepatoma cells = experiment: Cell proliferation assay, HepG2 (CellTiter-Glo, 7 days); assay type: cell-based; settings: HepG2, 7 days, CellTiter-Glo 2.0
# Experimental: as §2, §3
# T1 sequence (O14744 whole entry): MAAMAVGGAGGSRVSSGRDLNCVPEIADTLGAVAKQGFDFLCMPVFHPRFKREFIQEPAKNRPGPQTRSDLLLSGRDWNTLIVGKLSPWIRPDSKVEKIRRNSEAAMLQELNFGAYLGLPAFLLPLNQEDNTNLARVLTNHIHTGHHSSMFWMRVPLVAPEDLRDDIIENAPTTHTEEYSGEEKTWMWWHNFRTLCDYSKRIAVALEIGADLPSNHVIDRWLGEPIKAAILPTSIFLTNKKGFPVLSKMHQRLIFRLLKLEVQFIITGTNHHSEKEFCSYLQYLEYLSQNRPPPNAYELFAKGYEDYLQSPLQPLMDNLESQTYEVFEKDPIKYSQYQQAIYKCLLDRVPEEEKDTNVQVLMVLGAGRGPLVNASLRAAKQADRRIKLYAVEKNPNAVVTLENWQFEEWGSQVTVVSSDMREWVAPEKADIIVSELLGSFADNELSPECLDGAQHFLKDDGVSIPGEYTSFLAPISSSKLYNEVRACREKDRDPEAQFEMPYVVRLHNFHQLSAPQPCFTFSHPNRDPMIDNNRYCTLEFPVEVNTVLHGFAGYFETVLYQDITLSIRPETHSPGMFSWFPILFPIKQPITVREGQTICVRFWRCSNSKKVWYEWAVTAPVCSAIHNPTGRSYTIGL
# T1 sequence (Q9BQA1 whole entry partner): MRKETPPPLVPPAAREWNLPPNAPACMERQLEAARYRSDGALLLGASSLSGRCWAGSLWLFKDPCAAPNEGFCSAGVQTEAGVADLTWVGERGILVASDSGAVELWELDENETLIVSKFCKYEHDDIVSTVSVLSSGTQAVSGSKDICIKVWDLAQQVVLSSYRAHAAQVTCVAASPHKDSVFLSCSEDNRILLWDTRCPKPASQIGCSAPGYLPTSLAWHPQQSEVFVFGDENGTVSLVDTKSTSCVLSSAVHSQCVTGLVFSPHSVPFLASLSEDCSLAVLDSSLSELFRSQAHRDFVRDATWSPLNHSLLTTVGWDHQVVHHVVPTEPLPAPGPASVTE
SMILES,IC50 (PRMT5/MEP50 [1]) [nM],IC50 (PRMT5/MEP50 [2]) [nM],EC50 [3] [nM],"EC50 (HepG2 hepatoma cells; Homo sapiens, 168 h) [nM]",EC50 (HepG2 hepatoma cells) [nM],"EC50 ([3]; Homo sapiens, A549, 168 h) [nM]"
C[C@]1(/C=C/c2ccc3cc(Br)c(N)nc3c2)C[C@@H](n2ccc3c(N)ncnc32)[C@H](O)[C@@H]1O [Compound 1],,< 1,,,,
C=C1[C@@H](n2ccc3c(N)ncnc32)[C@H](O)[C@H](O)[C@H]1CCc1ccc2cc(Br)c(Cl)nc2c1 [Compound 3],> 100,> 100,100 to 1000,,100 to 1000,
C=C1[C@@H](n2ccc3c(N)ncnc32)[C@H](O)[C@H](O)[C@H]1CCc1ccc2cc(Br)c(N)nc2c1 [Compound 4],< 1,< 1,< 20,,< 20,
C[C@@H]1[C@H](CCc2ccc3ccc(N)nc3c2)[C@@H](O)[C@@H](O)[C@@H]1n1ccc2c(N)ncnc21 [Compound 6],1 to 100,1 to 100,≥ 1000,,≥ 1000,
"Nc1nc2cc(OC[C@@]3(F)C[C@@H](n4ccc5c(N)ncnc54)[C@H](O)[C@@H]3O)ccc2cc1Br [Compound 9, (1S,2S,3S,5R)-3-[(2-amino-3-bromo-7-quinolyl)oxymethyl]-5-(4-aminopyrrolo[2,3-d]pyrimidin-7-yl)-3-fluoro-cyclopentane-1,2-diol]",< 1,< 1,,20 to 100,,20 to 100
"Cc1cc2ccc(CC[C@@]3(C)C[C@@H](n4ccc5c(N)ncnc54)[C@H](O)[C@@H]3O)cc2nc1N [Compound 10, (1S,2R,3S,5R)-3-[2-(2-amino-3-methyl-7-quinolyl)ethyl]-5-(4-aminopyrrolo[2,3-d]pyrimidin-7-yl)-3-methyl-cyclopentane-1,2-diol]",< 1,< 1,,< 20,,< 20
"Nc1nc2cc(OC[C@H]3C[C@@H](n4ccc5c(N)ncnc54)[C@H](F)[C@@H]3O)ccc2cc1Br [Compound 11, (1R,2S,3R,5R)-5-[(2-amino-3-bromo-7-quinolyl)oxymethyl]-3-(4-aminopyrrolo[2,3-d]pyrimidin-7-yl)-2-fluoro-cyclopentanol]",1 to 100,> 100,,100 to 1000,,≥ 1000

# The remaining lines, values ahead:
IC50 (PRMT5/MEP50 [1]) [nM],IC50 (PRMT5/MEP50 [2]) [nM],EC50 [3] [nM],"EC50 (HepG2 hepatoma cells; Homo sapiens, 168 h) [nM]",EC50 (HepG2 hepatoma cells) [nM],"EC50 ([3]; Homo sapiens, A549, 168 h) [nM]",SMILES
1 to 100,< 1,100 to 1000,100 to 1000,,,"Nc1ncnc2c1ccn2[C@H]1[C@H](O)[C@H](O)[C@]2(C(O)c3ccc(Cl)c(Cl)c3)C[C@H]12 (single isomer, unassigned) [Compound 7, (1R,2R,3S,4R,5S)-4-(4-aminopyrrolo[2,3-d]pyrimidin-7-yl)-1-[(R or S)-(3,4-dichlorophenyl)-hydroxy-methyl]bicyclo[3.1.0]hexane-2,3-diol]"
> 100,1 to 100,≥ 1000,,100 to 1000,,"Nc1ncnc2c1ccn2[C@H]1[C@H](O)[C@H](O)[C@]2(C(O)c3ccc(Cl)c(Cl)c3)C[C@H]12 (single isomer, unassigned) [Compound 8, (1R, 2R, 3S, 4R, 5S)-4-(4-aminopyrrolo[2,3-d]pyrimidin-7-yl)-1-[(S or R)-(3,4-dichlorophenyl)-hydroxy-methyl]bicyclo[3.1.0]hexane-2,3-diol]"
< 1,< 1,< 20,,< 20,,Nc1nc2cc(CC[C@@]34C[C@@H]3[C@@H](n3ccc5c(N)ncnc53)[C@H](O)[C@@H]4O)ccc2cc1Br [Compound 2]
< 1,< 1,100 to 1000,,100 to 1000,,C[C@H]1[C@H](CCc2ccc3ccc(N)nc3c2)[C@@H](O)[C@@H](O)[C@@H]1n1ccc2c(N)ncnc21 [Compound 5]
< 1,< 1,,< 20,,< 20,"C[C@]1(CCc2ccc3ccc(N)nc3c2)C[C@@H](n2ccc3c(N)ncnc32)[C@H](O)[C@@H]1O [Compound 12, (1S,2R,3S,5R)-5-(4-amino-7H-pyrrolo[2,3-d]pyrimidin-7-yl)-3-(2-(2-aminoquinolin-7-yl)ethyl)-3-methylcyclopentane-1,2-diol]"
< 1,< 1,,< 20,,< 20,"Nc1ccc2ccc(CC[C@@]34C[C@@H]3[C@@H](n3ccc5c(N)ncnc53)[C@H](O)[C@@H]4O)cc2n1 [Compound 13, (1R,2R,3S,4R,5S)-4-(4-aminopyrrolo[2,3-d]pyrimidin-7-yl)-1-[2-(2-amino-7-quinolyl)ethyl]bicyclo[3.1.0]hexane-2,3-diol]"
< 1,< 1,,< 20,,< 20,"C[C@]1(CCc2ccc3cc(C4CC4)c(N)nc3c2)C[C@@H](n2ccc3c(N)ncnc32)[C@H](O)[C@@H]1O [Compound 14, (1S,2R,3S,5R)-3-[2-(2-amino-3-cyclopropyl-7-quinolyl)ethyl]-5-(4-aminopyrrolo[2,3-d]pyrimidin-7-yl)-3-methylcyclopentane-1,2-diol]"
